In patent publication US9682994B2, “Inhibitors of retroviral replication” (The Scripps Research Institute, priority 2011, dated 2017):
Read-outs that look alike come from different tables or passages of the source.

What was measured:
HIV-1 pNL4-3 = test: Viral RNA in chronically infected CEM SS cells; format: cell-based; settings: 7 days treatment
Protocol: CEM SS cells chronically infected with pNL4-3 were treated with the indicated compounds for 7 days. Quantification of viral RNA was performed as in FIG. 1E.
Such an early time point rules out de novo infections. […] This conclusion was further supported by the fact that treatment of cells that were chronically infected, and therefore continuously shedding the virus (without incurring new infections, due to down-regulation of CD4 from the cell surface), reduced virus production to undetectable levels (FIG. 1F). […] Results were similar when viral release from cells treated for 60 days were measured by p24 enzyme-linked immunosorbent assay (ELISA) (FIG. 1G).

HeLa-CD4 cells = test: MTT mitochondrial metabolic activity (cell viability); format: cell-based
[1] = Hepatic microsomal stability, human; format: in vitro ADME; settings: 1 μM, 0.2-1 mg/ml microsomes, NADPH 1 mM
Source text: In vitro studies compared murine and human hepatic microsomes (150 donor mixed male/female pool).

HIV = test: p24 production from CD4+ T cells of viremic HIV-infected subjects; format: cell-based, human; settings: 100 nM dCA added to ARVs
Protocol: Viral production was measured in the supernatant by a sensitive in-house ELISA for capsid p24 and normalized to the negative control (Mock). Statistical significance was assessed by a paired t-test.
All patients provided written informed consent, according to the guidelines of the ethics committee of the Oregon Health and Science University. […] Viral production was measured in the supernatant by a sensitive in-house ELISA specific for the viral capsid protein, p24. […] Viral production was measured by quantification of viral particle-associated RNA by ultra-sensitive two-step quantitative real-time reverse transcription-PCR (RT-qPCR). Briefly, viral particles in the cell culture supernatant were pelleted by centrifugation (60 min, 25000 g at 4° C.). To generate the standard curve, a sample of LAI-HIV with known titer was pelleted in the same run. After centrifugation, viral RNA was extracted with the QIAamp viral RNA extraction kit (Qiagen) according to the manufacturer's instructions.
Cells were grown in IL-2 to increase viability.

[2] = molecular target: T1, DNA-dependent protein kinase (DNA-PK) catalytic subunit (Homo sapiens, UniProt P78527); test: Bio-CA pull-down / mass spectrometry, DNA-PK; format: binding
T1 construct: endogenous in cells; host or cells: P42 (HeLa-CD4-LTR-LacZ) cells; HEK293T cells
Protocol: FIG. 14: Bio-CA associated proteins. […] After SDS-PAGE analysis and Coomassie staining, gel slices were trypsin-digested and sent to mass spectrometry analysis.
To identify cellular proteins associated with CA, a biotinylated form of the compound (Bio-CA) was used. […] The Bio-CA was used to cover streptavidin-coated magnetic beads to pull down interacting proteins from either uninfected or chronically infected lysates of cells grown in the presence or absence of CA for 48 hours (FIG. 14D). The identity of the proteins pulled down under the different conditions was determined by HPLC MS/MS analysis. The proteins were identified with a greater than 95% confidence using a proprietary Scripps proteomics software package for protein identification, statistical analysis, and mass/peptide sequence correlation. The HIV proteome was added to the proteomics software search database before analysis. Many proteins were identified in uninfected untreated and in chronically untreated samples (approximately 300), however only 53 were displaced by more than 50% by the presence of CA. Of these 53 proteins, it appears that at least 2 may have a role in HIV-1 replication: DNA-dependent protein kinase catalytic subunit (DNA-PK) and helicase like transcription factor (HLTF).

[3] = tested on: RNAPII occupancy of the HIV promoter and ORF; test: ChIP of RNAPII on HIV promoter and ORF; format: cell-based, HIV-1; settings: 4 days treatment
Protocol: FIG. 3C: ChIP assay of the HIV promoter. […] Lysates were sonicated, the crosslinks were reversed and RNAPII was immunoprecipitated. DNA was measured by qPCR using the indicated set of primers. ChIP values are represented as percentages of input. Error bars, ±s.d. (n=3). *P<0.05; **P<0.01 (unpaired t-test).
Cells were fixed with formaldehyde (1% [vol/vol]) to crosslink the chromatin and incubated at room temperature for 10 min. Crosslinking was arrested by adding glycine[0.125 M] and incubated for an additional 5 min at room temperature. Cells were then pelleted, washed twice with phosphate-buffered saline, ressuspended in SDS lysis buffer, and incubated 10 min on ice. All solutions used prior to the collection of chromatin-antibody complexes contained protease and phosphatase inhibitor cocktail. Cell lysates were sonicated 4 times for 10 s bursts on ice. The sheared chromatin was diluted by the addition of 3 volumes of ChIP dilution buffer (0.01% SDS, 1.1% Triton X-100, 1.2 mM EDTA, 16.7 mM Tris-HCl (pH 8.1), 167 mM NaCl) and pre-cleared with salmon sperm DNA-protein A/G agarose slurry for 2 h. […] The relative proportions of co-immunoprecipitated DNA fragments were determined on the basis of the threshold cycle (CT) for each PCR product. […]

T1 sequence (P78527 whole entry): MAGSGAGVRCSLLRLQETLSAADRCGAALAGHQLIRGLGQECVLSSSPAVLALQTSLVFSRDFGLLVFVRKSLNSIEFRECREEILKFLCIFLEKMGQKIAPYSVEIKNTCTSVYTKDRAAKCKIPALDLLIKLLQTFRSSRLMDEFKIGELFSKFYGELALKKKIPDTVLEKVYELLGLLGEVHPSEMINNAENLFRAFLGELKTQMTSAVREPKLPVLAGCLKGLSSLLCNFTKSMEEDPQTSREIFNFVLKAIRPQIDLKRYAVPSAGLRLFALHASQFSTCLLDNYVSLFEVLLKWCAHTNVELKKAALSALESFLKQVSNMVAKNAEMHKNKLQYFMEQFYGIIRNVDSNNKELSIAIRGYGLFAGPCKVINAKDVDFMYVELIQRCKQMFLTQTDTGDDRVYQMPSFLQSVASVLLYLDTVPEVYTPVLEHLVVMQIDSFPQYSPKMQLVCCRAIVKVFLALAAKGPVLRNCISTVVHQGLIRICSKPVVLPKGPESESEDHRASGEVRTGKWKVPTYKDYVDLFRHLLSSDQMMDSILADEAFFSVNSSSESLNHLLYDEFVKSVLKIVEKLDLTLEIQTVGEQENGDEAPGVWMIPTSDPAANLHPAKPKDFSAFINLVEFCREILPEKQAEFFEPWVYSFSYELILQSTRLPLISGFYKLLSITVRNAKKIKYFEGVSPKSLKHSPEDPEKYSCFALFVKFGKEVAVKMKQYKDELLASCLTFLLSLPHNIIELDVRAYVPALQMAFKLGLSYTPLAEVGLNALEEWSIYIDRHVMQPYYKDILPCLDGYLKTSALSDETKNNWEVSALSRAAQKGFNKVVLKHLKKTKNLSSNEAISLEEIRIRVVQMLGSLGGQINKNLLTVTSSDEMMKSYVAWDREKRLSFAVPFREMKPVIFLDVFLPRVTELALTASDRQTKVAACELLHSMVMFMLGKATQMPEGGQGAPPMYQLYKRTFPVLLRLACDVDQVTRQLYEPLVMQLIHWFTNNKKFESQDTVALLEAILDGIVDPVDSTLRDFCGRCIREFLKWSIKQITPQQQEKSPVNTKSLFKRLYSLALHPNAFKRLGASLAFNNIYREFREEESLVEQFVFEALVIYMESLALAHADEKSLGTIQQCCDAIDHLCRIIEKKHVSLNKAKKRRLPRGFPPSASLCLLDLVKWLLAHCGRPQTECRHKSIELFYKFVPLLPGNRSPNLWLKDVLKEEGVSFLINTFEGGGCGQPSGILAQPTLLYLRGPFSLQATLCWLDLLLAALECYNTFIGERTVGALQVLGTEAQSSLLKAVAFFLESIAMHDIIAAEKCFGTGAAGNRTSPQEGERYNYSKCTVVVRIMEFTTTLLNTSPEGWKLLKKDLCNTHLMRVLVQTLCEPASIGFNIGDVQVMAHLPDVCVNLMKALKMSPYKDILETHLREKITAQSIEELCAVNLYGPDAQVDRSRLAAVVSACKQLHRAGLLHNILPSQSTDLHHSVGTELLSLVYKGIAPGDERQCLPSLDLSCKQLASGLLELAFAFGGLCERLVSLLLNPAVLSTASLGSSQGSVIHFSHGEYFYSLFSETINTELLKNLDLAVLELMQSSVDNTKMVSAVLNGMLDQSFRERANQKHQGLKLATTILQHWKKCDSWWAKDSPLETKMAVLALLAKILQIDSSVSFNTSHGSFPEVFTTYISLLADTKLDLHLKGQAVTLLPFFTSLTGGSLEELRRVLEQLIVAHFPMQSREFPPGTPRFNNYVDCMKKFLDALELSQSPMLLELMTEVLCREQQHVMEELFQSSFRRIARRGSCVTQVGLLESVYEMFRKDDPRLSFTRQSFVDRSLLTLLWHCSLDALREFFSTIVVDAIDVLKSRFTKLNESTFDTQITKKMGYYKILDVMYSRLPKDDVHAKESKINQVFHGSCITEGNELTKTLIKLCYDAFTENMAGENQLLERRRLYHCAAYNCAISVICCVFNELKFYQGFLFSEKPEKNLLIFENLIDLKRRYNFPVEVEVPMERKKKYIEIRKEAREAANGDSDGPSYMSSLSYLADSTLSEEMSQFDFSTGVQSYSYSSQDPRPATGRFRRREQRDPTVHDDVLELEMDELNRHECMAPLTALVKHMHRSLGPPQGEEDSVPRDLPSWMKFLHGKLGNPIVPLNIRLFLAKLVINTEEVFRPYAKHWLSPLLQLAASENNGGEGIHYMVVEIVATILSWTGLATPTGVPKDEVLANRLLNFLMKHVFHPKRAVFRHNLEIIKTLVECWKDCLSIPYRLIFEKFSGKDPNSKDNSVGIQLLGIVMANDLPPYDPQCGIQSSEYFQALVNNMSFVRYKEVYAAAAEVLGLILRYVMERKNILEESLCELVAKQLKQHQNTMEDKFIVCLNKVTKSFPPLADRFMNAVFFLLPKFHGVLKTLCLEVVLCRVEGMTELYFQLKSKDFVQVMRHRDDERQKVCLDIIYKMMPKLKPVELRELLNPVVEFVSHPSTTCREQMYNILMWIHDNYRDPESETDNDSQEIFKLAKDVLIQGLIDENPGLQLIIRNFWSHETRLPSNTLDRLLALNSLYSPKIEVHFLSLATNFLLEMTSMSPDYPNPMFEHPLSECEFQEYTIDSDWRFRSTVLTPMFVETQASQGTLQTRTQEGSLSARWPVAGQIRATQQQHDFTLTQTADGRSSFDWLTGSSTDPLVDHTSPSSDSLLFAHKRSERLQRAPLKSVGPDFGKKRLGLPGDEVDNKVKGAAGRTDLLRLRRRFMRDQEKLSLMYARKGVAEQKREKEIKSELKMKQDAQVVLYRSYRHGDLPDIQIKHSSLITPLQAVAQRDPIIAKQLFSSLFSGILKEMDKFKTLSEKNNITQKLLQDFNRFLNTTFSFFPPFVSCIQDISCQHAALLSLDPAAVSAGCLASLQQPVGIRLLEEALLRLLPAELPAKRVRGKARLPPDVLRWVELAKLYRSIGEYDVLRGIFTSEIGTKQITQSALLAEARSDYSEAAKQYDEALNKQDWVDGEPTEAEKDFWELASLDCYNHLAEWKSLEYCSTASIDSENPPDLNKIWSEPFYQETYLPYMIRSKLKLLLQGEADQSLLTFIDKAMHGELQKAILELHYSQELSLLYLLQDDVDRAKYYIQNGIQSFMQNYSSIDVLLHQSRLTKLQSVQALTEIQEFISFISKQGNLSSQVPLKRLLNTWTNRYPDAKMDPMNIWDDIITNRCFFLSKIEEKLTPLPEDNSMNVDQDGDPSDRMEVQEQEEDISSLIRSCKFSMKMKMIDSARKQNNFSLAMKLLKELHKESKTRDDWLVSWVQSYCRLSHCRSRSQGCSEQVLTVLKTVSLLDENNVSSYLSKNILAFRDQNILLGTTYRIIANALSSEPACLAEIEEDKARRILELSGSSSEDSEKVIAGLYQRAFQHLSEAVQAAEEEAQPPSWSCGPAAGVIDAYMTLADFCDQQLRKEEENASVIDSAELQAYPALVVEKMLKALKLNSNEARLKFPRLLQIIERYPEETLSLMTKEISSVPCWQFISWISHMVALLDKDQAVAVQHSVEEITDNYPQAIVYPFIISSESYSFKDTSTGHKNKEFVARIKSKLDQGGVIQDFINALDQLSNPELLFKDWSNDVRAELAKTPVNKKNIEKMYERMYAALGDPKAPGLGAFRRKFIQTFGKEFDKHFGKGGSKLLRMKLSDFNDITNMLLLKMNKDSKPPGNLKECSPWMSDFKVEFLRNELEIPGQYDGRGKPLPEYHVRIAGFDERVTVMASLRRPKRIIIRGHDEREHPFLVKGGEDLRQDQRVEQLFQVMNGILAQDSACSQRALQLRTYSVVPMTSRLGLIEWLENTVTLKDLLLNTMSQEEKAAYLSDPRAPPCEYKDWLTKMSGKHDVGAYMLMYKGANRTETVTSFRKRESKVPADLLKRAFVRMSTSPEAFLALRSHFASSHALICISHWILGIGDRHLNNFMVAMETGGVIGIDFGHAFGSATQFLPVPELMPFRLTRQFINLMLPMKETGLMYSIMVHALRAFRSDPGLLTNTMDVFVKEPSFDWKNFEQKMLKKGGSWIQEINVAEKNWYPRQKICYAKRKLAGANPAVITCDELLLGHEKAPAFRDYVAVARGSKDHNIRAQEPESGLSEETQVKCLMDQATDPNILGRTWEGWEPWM

**Q.** With CN(C)[C@H]1C[C@@]23CC[C@@]4(O2)C(=CC[C@]2(C)C(c5ccc6ccncc6c5)=CC[C@H]24)C=C3[C@@H](O)[C@@H]1O [dCA, didehydro-Cortistatin A] as the molecule, how does the “viral RNA levels in chronically infected CEM SS” value (HIV-1 pNL4-3) read?
**A.** reduced viral RNA levels

**Q.** What about the CC50 (HeLa-CD4 cells) of the same molecule?
**A.** 20 µM

**Q.** And the CC50 (HeLa-CD4 cells; cultured cell lines or freshly isolated PBLs, read-out: cytotoxic concentration (CC50))?
**A.** 20 µM

**Q.** And the “T1/2 hepatic microsomes, Human” value [1]?
**A.** 1 h

**Q.** What about the “further decrease of p24 production on addition to the ARVs” value (HIV) of the same molecule?
**A.** 20%

**Q.** What about the “interaction with DNA-PK” value [2] of the same molecule?
**A.** interaction

**Q.** What about the “association of RNAPII with the HIV promoter and ORF” value [3] of the same molecule?
**A.** significantly decreased
